Experimental findings from a melting point compilation (Tetko et al.; mined from patent text by program, amines drawn as free bases though some values may be those of a salt) are described below.

In turn, `OC(CCc1ccccc1)c1cnc2sc3c(n12)CCCCCC3` (configuration not stated) came in with a melting point of 123 to 124 °C.

Molecule `Cc1ccc(Cc2cnc(NCCCCc3ncc([N+](=O)[O-])cc3C)[nH]c2=O)cn1` yielded a melting point of 141 to 142 °C.

`COc1ccc(Oc2ccn3nc(-c4ccccc4)c(-c4ccc(=O)n(C(C)C)n4)c3c2)nc1` displayed a melting point of 148 to 150 °C.

`O=C(O)c1cccc(-c2cccn3c(=O)n(Cc4cccc(C(F)(F)F)c4)nc23)c1` yielded a melting point of 218 to 222 °C.

The molecule `O=C(c1ccccc1)N1CCC(COc2ccccc2)CC1` registered a melting point of 95 to 96 °C.

`Cc1cccc(CN(CCC(=O)O)c2nc(NC(=O)Nc3ccccc3O)nc(Nc3ccccc3-c3ccccc3)n2)c1` came in with a melting point of 122 to 124 °C.

As to `O=Cc1ccc(-c2nc(Oc3ccccc3)cc(Oc3ccccc3)n2)cc1`, the melting point lay in the range of 143 to 145 °C.

With `O=c1oc2cccc(O)c2c(OCCN2CCOCC2)c1-c1ccccc1`, the melting point amounted to 206 °C.

For the molecule `CC1=C(C(=O)OC(C)C)C(c2cccc([N+](=O)[O-])c2)N(C(=O)NCc2ccccc2)C(=O)N1` (configuration not stated), the melting point is 184 to 185 °C.

The molecule `Cc1nc([C@@H](Cc2c[nH]c3ccccc23)NC(=O)OC(C)(C)C)oc1C` registered a melting point of 138 to 140 °C.

Molecule `N#Cc1cc(C(F)(F)F)n(Cc2ccccc2)c1-c1ccc(Cl)cc1` registered a melting point of 104 to 106 °C.

For the molecule `c1ccc2c(c1)Cc1ccccc1N1CCNCC21` (configuration not stated), the melting point was in the range of 128 to 130 °C.

Consider `CCOC(=O)c1cn(NCC=O)c2cc(-n3cccc3)c(F)cc2c1=O`, for which the melting point was in the range of 194 to 198 °C.

Turning to `CCCN1C(=O)CC(C)(C)c2cc(C)c(-c3cc(C=C4SC(=O)NC4=O)ccc3N(C)C)cc21`, the melting point is 258 to 260 °C.

The molecule `NC(=O)c1cccc(-c2cccc3oc(Cc4cccc(C(F)(F)F)c4)cc23)c1` came in with a melting point of 159 to 160 °C.

Molecule `Cc1cc(O)c(SCC2CCCCC2)c(=O)o1` had a melting point of 81.5 to 83 °C.

Regarding `CC1(C)C(=O)Oc2ccc(Br)cc21`, the melting point lay in the range of 55 to 56 °C.

On to `CCCCn1c(=O)c2cn(S(=O)(=O)c3ccc(OC(F)(F)F)cc3)nc2n(CCCC)c1=O`, for which the melting point was 135 to 137 °C.

For the molecule `COC(=O)[C@H]1C=C(c2ccccc2)OC(=O)[C@H]1Cc1ccccc1`, the melting point is 105 to 106 °C.

In turn, `CS(=O)(=O)c1ccccc1C#N` yielded a melting point of 105 to 106 °C.

`CCCCCc1ccc(-c2ccc(-c3nc(N)nc(N)n3)cc2)cc1` yielded a melting point of 242 to 244 °C.

In turn, `CCn1c(=O)n(C2OC(CO)C(O)C2O)c2nc(N)[nH]c(=O)c21` (configuration not stated) returned a melting point of 185 to 187 °C.

Turning to `FC(F)(F)c1ccc(-c2ncc(-c3cccs3)s2)cc1`, the melting point lay in the range of 154 to 155 °C.

For the molecule `O=c1cc(C(F)(F)F)cc(-c2ccc(C(F)(F)F)cc2)[nH]1`, the melting point was in the range of 203 to 204 °C.

Consider `O=C(Cl)COc1nn(Cc2ccccc2)c2ccccc12`, for which the melting point fell in the range of 78 to 79 °C.

For `CC(C)(C)c1cc(NC(=O)Nc2cccc(Cl)c2Cl)c(-c2ccncc2)o1`, the melting point lay in the range of 195 to 198 °C.

In the case of `CC(C)(C)OC(=O)N1C[C@H](O)C[C@H]1C(=O)OC(c1ccccc1)c1ccccc1`, the melting point fell in the range of 93 to 95 °C.

Regarding `COc1ccc(S(=O)(=O)C2(C(=O)O)CCN(CCCOc3ccccc3)CC2)cc1`, the melting point was 101 °C.

`CCCC(O)c1cccc(NC(=O)OCc2ccccc2)c1` (configuration not stated) had a melting point of 103 to 106 °C.

`C=CCc1c(OC)c(C)c2c(c1OC(C)=O)C(=O)OC2`: the melting point is 101 to 102 °C.

Take `Cc1cccc(N2CCN(c3cc[nH]c(=S)c3C#N)CC2C)c1` (configuration not stated): the melting point was 250 to 251 °C.

`Cc1nc(-c2nn(-c3ccccc3)c(=O)cc2Oc2ccccc2)n[nH]1` gave a melting point of 245 to 247 °C.

Molecule `Nc1c(Cl)cc(Cl)n2nc(SCc3ccccc3)nc12` yielded a melting point of 118 to 119 °C.

As for `Cc1nc2c(N[C@@H]3c4ccccc4C[C@H]3O)cc(C(=O)N(C)C)cc2n1C` (relative stereo), the melting point was in the range of 219 to 221 °C.

On to `CSC[C@H](N)C(=O)NC(C)=O`, for which the melting point was 120 to 123 °C.

For `Cc1cc(C(=O)Nc2ccc(S(=O)(=O)C(F)(F)F)cc2Cl)c(O)c(C(C)(C)C)c1`, the melting point lay within 209 to 212 °C.

The molecule `CCCCOCCOc1ccc(-c2ccc3c(c2)C=C(C(=O)Nc2ccc(CSc4nncs4)cc2)CCN3CC(C)C)cc1` returned a melting point of 77 to 79 °C.

The molecule `Cc1c(C2CCCCC2)nn(C)c1C1CCCCC1` yielded a melting point of 120 to 122 °C.

As for `CNC(=O)c1ccc(-c2coc3ccc(-c4nnc(C)o4)cc23)cc1F`, the melting point lay in the range of 183 to 184 °C.

Take `Cc1ccc(-c2nc(-c3ccncc3)cs2)c(=O)[nH]1`: the melting point is above 300 °C.

For the molecule `CNC(=NCCCc1nc2cc(C3=NNC(=O)CC3C)ccc2[nH]1)NS(=O)(=O)c1ccccc1` (configuration not stated), the melting point fell in the range of 258 to 260 °C.

`Cc1nc(-c2ccc(C#N)cc2)sc1C(=O)N[C@H](C)[C@](O)(Cn1ccnc1)c1ccc(F)cc1F` came in with a melting point of 126 to 128 °C.

On to `O=C(Nc1cccnc1)NC(NC(=O)c1ccccc1)C(Cl)(Cl)Cl` (configuration not stated), for which the melting point lay within 214 to 215 °C.

As to `COc1cc2cnnc(N3CCC(CCN(C)C(=O)N(C)C)CC3)c2cc1OC`, the melting point was 140 to 141 °C.

`CC(O)C=CS(C)(=O)=O` (configuration not stated) gave a melting point of 70 to 72 °C.

`CN(C)c1ccc(-c2cccc3c2C2(COc4cc5c(cc42)OCO5)C(=O)N3Cc2ccc(C(F)(F)F)o2)cn1` (configuration not stated): the melting point lay within 174 to 176 °C.

Molecule `CC1(O)CC2(C)C(=O)CCC2C2CCC3=CC(=O)CCC3(C)C21` (configuration not stated) had a melting point of 150 to 151 °C.

For `CSC(=S)NN=Cc1nc[nH]c1C`, the melting point stood at 180 °C.

`CNC1Cc2ccccc2C1Nc1ccccc1` (configuration not stated): the melting point was in the range of 121 to 122 °C.

`COc1cc(N)c(Cl)cc1C(=O)NCC1CCN(CCCCCC(=O)c2ccc3ccccc3c2)CC1` came in with a melting point of 113 to 116 °C.

As for `C1=C(c2cccnc2)CCC(N2CCN(c3ccccn3)CC2)C1` (configuration not stated), the melting point was 146 to 148 °C.

`CC(c1ccc(C#Cc2ccccc2)cc1)N(O)C(N)=O` (configuration not stated) had a melting point of 144 to 146 °C.

`CCOC(=O)C1=C(C)NC(C)=C(C(=O)OCC)C1c1ccc(Br)cc1` gave a melting point of 164 to 165 °C.

In the case of `O=S(=O)(NCCCN1CCC(Oc2ccc(F)c(F)c2)CC1)c1ccc(-c2ccccn2)s1`, the melting point is 128 to 129 °C.

As for `Cc1ccc2c(NCc3ccc(NC(=O)c4ccc(F)cc4)cc3)nc(N3CCN[C@@H](C)C3)nc2c1`, the melting point was in the range of 200 to 202 °C.

`C=CCCCCCCCCC(=O)N1CCN(c2cc(N)nc(N)n2)CC1` yielded a melting point of 100 to 104 °C.

The molecule `CC(=O)OC1CCC2C3CCC4=CC(=O)C=CC4(C)C3CCC12C` (configuration not stated) gave a melting point of 165 °C.

On to `Cn1ncnc1COc1nn2c(-c3ccccc3F)nncc2c1-c1cc(F)ccc1F`, for which the melting point lay in the range of 164 to 165 °C.

As to `Clc1cnc2cccc(Cl)c2n1`, the melting point was 120 to 122 °C.

Consider `Cc1cc(-c2nn(C(C)c3oc4ccccc4c(=O)c3-c3cccc(F)c3)c3ncnc(N)c23)ccn1` (configuration not stated), for which the melting point is 266 to 268 °C.

As for `Cc1ccc(CNc2cccc(C(=O)O)c2C(=O)O)o1`, the melting point fell in the range of 305 to 307 °C.

On to `Cc1cccc(C(=O)N[C@@H](CC(C)C)C(=O)N[C@@H](C(C)C)[C@@H](O)c2c(-c3ccccc3)c2=O)n1`, for which the melting point lay within 98 to 100 °C.

Molecule `O=C(c1ccc(F)cc1F)N1Cc2cccnc2Nc2ccccc21` returned a melting point of 161 to 163 °C.

`Cc1cccc2c1nc(-c1ccccc1[N+](=O)[O-])n2CC(C)O` (configuration not stated) yielded a melting point of 171 to 172 °C.

Take `O=c1oc2cc(O)ccc2c2c1CCCC2`: the melting point lay within 200 to 202 °C.

As for `COc1ccc(C(=O)O)c2ccc(C(F)(F)F)nc12`, the melting point lay in the range of 248 to 249 °C.

`CC(C)(c1ccccc1)n1nnc(-c2ccccc2)n1` gave a melting point of 44 to 46 °C.

The molecule `O=C(O)CNC(=O)c1ccc(C(=O)NS(=O)(=O)c2ccc(C(=O)NCCc3ccccc3)cc2)cn1` had a melting point of 263 to 265 °C.

Molecule `N#Cc1nn(-c2c(Cl)cc(C(F)(F)F)cc2Cl)c(N)c1-c1ccc(SC(F)(F)F)s1` came in with a melting point of 162 to 163 °C.

Molecule `Cc1ccc(-c2nc(N3CCN(C)CC3)c3c(C)c(C#N)sc3n2)cc1` showed a melting point of 207 to 209 °C.

`CCOc1cc(N(C)C)c(Cl)cc1C(=O)NC1CCN(Cc2ccccc2)C1` (configuration not stated) showed a melting point of 112 to 113 °C.

As to `CC1(O)CN(c2ccc([N+](=O)[O-])cc2F)C1`, the melting point is 109 to 110 °C.

The molecule `O=C(O)CCCCOc1ccc2nc3[nH]c(=O)[nH]c3cc2c1` returned a melting point of 317 to 318 °C.

`Cc1[nH]cc2c1-c1ccc(Cl)cc1C(c1ccccc1Cl)=NC2` came in with a melting point of 219 to 222 °C.

For `COC(=O)C[C@H](O)C[C@H](O)C=Cc1c(-c2ccc(F)cc2)c(-c2ccccc2)c(C(=O)Nc2cccc(S(N)(=O)=O)c2)n1C(C)C`, the melting point was in the range of 85 to 87 °C.

The molecule `Clc1nc2ccccc2c2c(CCN3CCN(Cc4ccccc4)CC3)n(-c3ccccc3)nc12` returned a melting point of 75 to 77 °C.

`COC(=O)c1ccc(C(=O)N2CCCc3ccccc32)cc1` showed a melting point of 72 to 74 °C.

Molecule `CC(=O)COc1c(-c2ccccc2)c(=O)[nH]c2cc(Cl)ccc12` registered a melting point of 185 to 186 °C.

`O=C(NCc1ccccc1)C1Cc2ccccc2N1S(=O)(=O)c1ccc(-c2ccc(F)cc2)cc1` (configuration not stated) registered a melting point of 65 °C.

On to `Cc1ccc(N2C(=O)C(O)=C(C(=O)c3ccc(C(C)(C)C)cc3)C2c2ccc(OC(F)(F)F)cc2)nn1` (configuration not stated), for which the melting point fell in the range of 262 to 265 °C.

In turn, `CCn1ncnc1COc1nn2c(-c3ccccc3F)nncc2c1-c1ccco1` had a melting point of 182 to 183 °C.

`CCCCc1c[nH]c2c(Br)cccc2c1=O`: the melting point came to 172 °C.

With `CN(C)Cc1ccc2sc(S(N)(=O)=O)cc2c1`, the melting point lay in the range of 172 to 174 °C.

The molecule `Cc1c(C=CC=O)c2c(c(C)c1OCc1ccccc1)CC(C)(C)O2` came in with a melting point of 108 to 109 °C.

The molecule `CCCOC1(OC)C=CC=C(N2CCC(c3noc4cc(F)ccc34)CC2)C1O` (configuration not stated) gave a melting point of 134 to 135 °C.

Molecule `CN(C(=O)Oc1ccc(Cl)c(C(C)(C)C)c1)c1ccc(F)cc1` returned a melting point of 92 to 94 °C.

With `N#Cc1ccc(C(=O)O)c(Cl)c1`, the melting point lay in the range of 154 to 158 °C.

The term melting point denotes the temperature of the solid-liquid transition.
